Results published in ChEMBL document CHEMBL5338766, “X-ray Crystal Structure-Guided Discovery of Novel Indole Analogues as Colchicine-Binding Site Tubulin Inhibitors with Immune-Potentiating and Antitumor Effects against Melanoma” (J Med Chem, 2023).

What was measured:
HepG2 = assay: Antiproliferative activity against human HepG2 cells assessed as inhibition of cell proliferation incubated for 48 hrs by MTT assay; assay type: functional, cell-based; conditions: HepG2, 48 h
B16-F10 [1] = assay: Antiproliferative activity against mouse B16-F10 cells assessed as inhibition of cell proliferation incubated for 48 hrs by MTT assay; assay type: functional, cell-based; conditions: B16-F10, 48 h
HeLa = assay: Antiproliferative activity against human HeLa cells assessed as inhibition of cell proliferation incubated for 48 hrs by MTT assay; assay type: functional, cell-based
MCF7 = assay: Antiproliferative activity against human MCF7 cells assessed as inhibition of cell proliferation incubated for 48 hrs by MTT assay; assay type: functional, cell-based; conditions: MCF7, 48 h
[2] = Toxicity in C57 mouse implanted with mouse B16-F10 cells assessed as pathological changes in kidney at 5 mg/kg, ip administered every day for 14 days by H&E staining based microscopic analysis; assay type: organism-based; conditions: in vivo, 336 h, time 14 day
[3] = Resistance index, ratio of IC50 for antiproliferative activity against paclitaxel resistant human A549/TxR cells to IC50 for antiproliferative activity against parental human A549S cells; assay type: functional
[4] = Toxicity in C57 mouse implanted with mouse B16-F10 cells assessed as pathological changes in liver at 5 mg/kg, ip administered every day for 14 days by H&E staining based microscopic analysis; assay type: organism-based; conditions: in vivo, 336 h, time 14 day
A2780/Taxol = assay: Antiproliferative activity against paclitaxel resistant human A2780/Taxol cells assessed as inhibition of cell proliferation incubated for 48 hrs by MTT assay; assay type: functional, cell-based
[5] = Resistance index, ratio of IC50 for antiproliferative activity against paclitaxel resistant human A2780/Taxol cells to IC50 for antiproliferative activity against parental human A2780S cells; assay type: functional
[6] = Toxicity in C57 mouse implanted with mouse B16-F10 cells assessed as pathological changes in heart at 5 mg/kg, ip administered every day for 14 days by H&E staining based microscopic analysis; assay type: organism-based; conditions: in vivo, 336 h, time 14 day
[7] = Antiproliferative activity against parental human A549S cells assessed as inhibition of cell proliferation incubated for 48 hrs by MTT assay; assay type: functional, cell-based
A2780S = assay: Antiproliferative activity against parental human A2780S cells assessed as inhibition of cell proliferation incubated for 48 hrs by MTT assay; assay type: functional, cell-based
[8] = Antiproliferative activity against paclitaxel resistant human A549/TxR cells assessed as inhibition of cell proliferation incubated for 48 hrs by MTT assay; assay type: functional, cell-based
B16-F10 [9] = assay: Antitumor activity against mouse B16-F10 cells implanted in C57 mouse assessed as tumor growth inhibition at 5 mg/kg, ip administered every day for 14 days relative to control; assay type: functional; conditions: B16-F10, 336 h, time 14 day, read-out: TGI
[10] = Toxicity in C57 mouse implanted with mouse B16-F10 cells assessed as body weight loss at 5 mg/kg, ip administered every day for 14 days; assay type: organism-based; conditions: in vivo, 336 h, time 14 day
B16-F10 [11] = assay: Antitumor immunity in C57 mouse implanted with mouse B16-F10 cells assessed as increase in CD3+ CD8+ cytotoxic T cells in tumor at 5 mg/kg, ip administered every day for 14 days by flow cytometric analysis (reference value: 0.340%); assay type: functional; conditions: time 14 day
B16-F10 [12] = assay: Antitumor immunity in C57 mouse implanted with mouse B16-F10 cells assessed as increase in CD3+ CD4+ helper T cells in tumor at 5 mg/kg, ip administered every day for 14 days by flow cytometric analysis (reference value: 0.332%); assay type: functional; conditions: time 14 day

Row | Structure (SMILES) | IC50 (HepG2) [µM] | IC50 (B16-F10 [1]) [µM] | IC50 (HeLa) [µM] | IC50 (MCF7) [µM] | other results
1 | CCn1ccc2c(-c3nc4c(-c5cc(OC)c(OC)c(OC)c5)nccc4[nH]3)cccc21 | 0.011 | 0.018 | 0.029 | 0.022 | 
2 | CCn1ccc2ccc(-c3nc4c(-c5cc(OC)c(OC)c(OC)c5)nccc4[nH]3)cc21 | 0.509 | 0.631 | 0.818 | 0.602 | 
3 | CCn1ccc2cc(-c3nc4c(-c5cc(OC)c(OC)c(OC)c5)nccc4[nH]3)ccc21 | 0.13 | 0.237 | 0.195 | 0.317 | 
4 | COc1ccc(-c2nccc3[nH]c(-c4cccc5c4ccn5C)nc23)cc1OC | 0.256 | 0.199 | 0.453 | 0.699 | 
5 | COc1cc(-c2nccc3[nH]c(-c4ccc5ccn(C)c5c4)nc23)cc(OC)c1OC | 0.018 | 0.033 | 0.045 | 0.03 | 
6 | COc1cc(-c2nccc3[nH]c(-c4ccc5c(ccn5C)c4)nc23)cc(OC)c1OC | 0.044 | 0.06 | 0.071 | 0.036 | 
7 | COc1cc(-c2nn(C(=O)OC(C)(C)C)c3cnc(-c4cccc5c4ccn5C)cc23)cc(OC)c1OC | 4.7 | 5.17 | 5.93 | 7.66 | 
8 | COc1cc(OC)cc(-c2nccc3[nH]c(-c4cccc5c4ccn5C)nc23)c1 | 0.238 | 0.31 | 0.105 | 0.26 | 
9 | COc1ccc(-c2ccc3[nH]nc(-c4cc(OC)c(OC)c(OC)c4)c3n2)cc1 | 0.087 | 0.271 | 0.188 | 0.319 | 
10 | COc1cc(-c2nn(C(=O)OC(C)(C)C)c3ccc(-c4cccc5c4ccn5C)cc23)cc(OC)c1OC | 0.356 | 0.492 | 0.677 | 0.35 | 
11 | COc1cc(-c2n[nH]c3ccc(-c4ccc(C)cc4)nc23)cc(OC)c1OC | 0.019 | 0.032 | 0.092 | 0.058 | 
12 | CC(=O)O[C@H]1C(=O)[C@@]2(C)[C@H]([C@H](OC(=O)c3ccccc3)[C@]3(O)C[C@H](OC(=O)[C@H](O)[C@@H](NC(=O)c4ccccc4)c4ccccc4)C(C)=C1C3(C)C)[C@]1(OC(C)=O)CO[C@@H]1C[C@@H]2O [PACLITAXEL] |  |  |  |  | Activity [2]: Non-Toxic; Ratio IC50 [3]: 135.9; Activity [4]: Non-Toxic; IC50 (A2780/Taxol): 2.02 µM; Ratio IC50 [5]: 746.5; Activity [6]: Non-Toxic; IC50 [7]: 0.0249 µM; IC50 (A2780S): 0.0027 µM; IC50 [8]: 3.38 µM; inhibition in vivo at 5 mg/kg (B16-F10 [9]): 70.4%; Activity [10]: Non-Toxic
13 | COc1cc(-c2n[nH]c3cnc(-c4cccc5c4ccn5C)cc23)cc(OC)c1OC | 0.082 | 0.197 | 0.154 | 0.135 | 
14 | COc1cc(-c2nn(C(=O)OC(C)(C)C)c3ccc(-c4cccc5c4ccn5C)nc23)cc(OC)c1OC | 0.21 | 0.386 | 0.581 | 0.277 | 
15 | COc1cc(-c2n[nH]c3cnc(-c4ccc5c(ccn5C)c4)cc23)cc(OC)c1OC | 0.248 | 1 | 0.969 | 0.861 | 
16 | Cn1ccc2c(-c3nc4c(-c5ccc6c(c5)OCCO6)nccc4[nH]3)cccc21 | 0.119 | 0.138 | 0.092 | 0.213 | 
17 | COc1cc(-c2n[nH]c3ccc(-c4ccc5c(ccn5C)c4)cc23)cc(OC)c1OC | 0.049 | 0.098 | 0.173 | 0.036 | 
18 | COc1cc2c(c(OC)c1OC)-c1ccc(OC)c(=O)cc1[C@@H](NC(C)=O)CC2 [COLCHICINE] |  |  |  | 0.022 | IC50 (A2780/Taxol): 0.67 µM; IC50 [7]: 0.104 µM; IC50 (A2780S): 0.0232 µM; IC50 [8]: 0.677 µM
19 | COc1cc(-c2n[nH]c3ccc(-c4ccc5c(ccn5C)c4)nc23)cc(OC)c1OC | 0.016 | 0.043 | 0.048 | 0.035 | 
20 | COc1cc(-c2n[nH]c3ccc(-c4cccc5c4ccn5C)cc23)cc(OC)c1OC | 0.03 | 0.066 | 0.048 | 0.045 | 
21 | COc1cc(-c2n[nH]c3ccc(-c4cccc5c4ccn5C)nc23)cc(OC)c1OC | 0.006 | 0.021 | 0.04 | 0.028 | 
22 | Cc1c(COc2cc3c(cc2Cl)CN(C(C)(C)C(=O)O)C(c2cccc(C#N)c2)O3)cccc1-c1ccccc1 (centres undefined) |  |  |  |  | Activity [2]: Non-Toxic; Activity (B16-F10 [11]): 2.27%; Activity [4]: Non-Toxic; Activity [6]: Non-Toxic; Activity (B16-F10 [12]): 1.43%; inhibition in vivo at 5 mg/kg (B16-F10 [9]): 48.5%; Activity [10]: Non-Toxic
23 | COc1cc(-c2cccc3[nH]c(-c4cccc5c4ccn5C)nc23)cc(OC)c1OC | 0.015 |  |  |  | 
24 | COc1cc(-c2n[nH]c3ccc(-c4ccccc4)nc23)cc(OC)c1OC | 0.115 | 0.683 | 0.742 | 0.957 | 
